US10499642B2, “Isoxazoline-substituted benzamides and analogues as insecticides” (SYNGENTA PARTICIPATIONS AG, priority 2015, dated 2019)
Read-outs that look alike come from different tables or passages of the source.

How the values were obtained:
Type in all cases: in vivo
Spodoptera littoralis = Spodoptera littoralis (Egyptian cotton leaf worm) cotton leaf disc test; conditions: foliar, 72 h, read-out: control (at least one of mortality, anti-feedant effect, and growth inhibition)
Protocol: Spodoptera littoralis (Egyptian Cotton Leaf Worm)
Cotton leaf discs were placed on agar in 24-well microtiter plates and sprayed with aqueous test solutions prepared from 10′000 ppm DMSO stock solutions. After drying the leaf discs were infested with five L1 larvae. The samples were assessed for mortality, anti-feedant effect, and growth inhibition in comparison to untreated samples 3 days after infestation. Control of Spodoptera littoralis by a test sample is when at least one of mortality, anti-feedant effect, and growth inhibition is higher than the untreated sample.

Plutella xylostella = Plutella xylostella (diamond back moth) artificial diet test; conditions: 120 h, read-out: effect in at least one of the two categories (mortality or growth inhibition)
Protocol: Plutella xylostella (Diamond Back Moth):
(§1) 24-well microtiter plates with artificial diet were treated with aqueous test solutions prepared from 10′000 ppm DMSO stock solutions by pipetting. After drying, the plates were infested with L2 larvae (10 to 15 per well). The samples were assessed for mortality and growth inhibition in comparison to untreated samples 5 days after infestation. The following compounds gave an effect of at least 80% in at least one of the two categories (mortality or growth inhibition) at an application rate of 200 ppm: […]

Diabrotica Balteata = test: Diabrotica balteata (corn root worm) maize sprout test; conditions: 96 h, read-out: effect in at least one of the two categories (mortality or growth inhibition)
Protocol: Diabrotica Balteata, (Corn Root Worm)
as §1, with “Maize sprouts, placed on an agar layer in 24-well” for “24-well”, “plates” for “plates with artificial diet”, “spraying.” for “pipetting.”, “(6” for “(10”, “10” for “15”, “4” for “5”

Thrips tabaci = Thrips tabaci (onion thrips) sunflower leaf disc test; conditions: foliar, 144 h
Protocol: Thrips tabaci (Onion Thrips):
(§2) Sunflower leaf discs were placed on agar in 24-well microtiter plates and sprayed with aqueous test solutions prepared from 10′000 ppm DMSO stock solutions. After drying the leaf discs were infested with a thrips population of mixed ages. The samples were assessed for mortality 6 days after infestation.

Tetranychus urticae = Tetranychus urticae (two-spotted spider mite) bean leaf disc test; conditions: foliar, 192 h
Protocol: Tetranychus urticae (Two-Spotted Spider Mite):
as §2, with “Bean” for “Sunflower”, “discs” for “discs were placed”, “were” for “and”, “mite” for “thrips”, “on mixed population (mobile stages) 8” for “6”

Myzus persicae = Myzus persicae (green peach aphid) sunflower leaf disc test; conditions: foliar, 144 h
Protocol: Myzus persicae (Green Peach Aphid):
Sunflower leaf discs were placed on agar in a 24-well microtiter plate and sprayed with test solutions at an application rate of 200 ppm. After drying, the leaf discs were infested with an aphid population of mixed ages. After an incubation period of 6 days after treatment, samples were checked for mortality. The following compounds gave at least 80% mortality of Myzus persicae: […]

CC1=NOC(NC(=O)c2ccc(C3=NO[C@@](c4cc(Cl)c(F)c(Cl)c4)(C(F)(F)F)C3)cc2C)C1 (stereo partly drawn) [Compound A009, 4-[(5S)-5-(3,5-dichloro-4-fluoro-phenyl)-5-(trifluoromethyl)-4H-isoxazol-3-yl]-2-methyl-N-(3-methyl-4,5-dihydroisoxazol-5-yl)benzamide]
≥ 80%: percent control (mortality, anti-feedant effect or growth inhibition) at 200 ppm (Spodoptera littoralis) | percent effect (mortality or growth inhibition) at 200 ppm (Plutella xylostella) | percent effect (mortality or growth inhibition) at 200 ppm (Diabrotica Balteata) | mortality at 200 ppm (Thrips tabaci) | mortality at 200 ppm (Tetranychus urticae) | mortality at 200 ppm (Myzus persicae)

Cc1cc(C2=NO[C@@](c3cc(Cl)c(Cl)c(Cl)c3)(C(F)(F)F)C2)ccc1C(=O)N(C=O)C1CC(Cl)=NO1 (stereo partly drawn) [Compound A010, N-(3-chloro-4,5-dihydroisoxazol-5-yl)-N-formyl-2-methyl-4-[(5S)-5-(3,4,5-trichlorophenyl)-5-(trifluoromethyl)-4H-isoxazol-3-yl]benzamide]
≥ 80%: percent control (mortality, anti-feedant effect or growth inhibition) at 200 ppm (Spodoptera littoralis) | percent effect (mortality or growth inhibition) at 200 ppm (Plutella xylostella) | percent effect (mortality or growth inhibition) at 200 ppm (Diabrotica Balteata) | mortality at 200 ppm (Thrips tabaci) | mortality at 200 ppm (Tetranychus urticae) | mortality at 200 ppm (Myzus persicae)

Cc1cc(C2=NO[C@@](c3cc(Cl)c(F)c(Cl)c3)(C(F)(F)F)C2)ccc1C(=O)N(C=O)C1CC(Cl)=NO1 (stereo partly drawn) [Compound A011, N-(3-chloro-4,5-dihydroisoxazol-5-yl)-4-[(5S)-5-(3,5-dichloro-4-fluoro-phenyl)-5-(trifluoromethyl)-4H-isoxazol-3-yl]-N-formyl-2-methyl-benzamide]
≥ 80%: percent control (mortality, anti-feedant effect or growth inhibition) at 200 ppm (Spodoptera littoralis) | percent effect (mortality or growth inhibition) at 200 ppm (Plutella xylostella) | percent effect (mortality or growth inhibition) at 200 ppm (Diabrotica Balteata) | mortality at 200 ppm (Thrips tabaci) | mortality at 200 ppm (Tetranychus urticae) | mortality at 200 ppm (Myzus persicae)

Cc1cc(C2=NO[C@@](c3cc(Cl)cc(C(F)(F)F)c3)(C(F)(F)F)C2)ccc1C(=O)N(C=O)C1CC(Cl)=NO1 (stereo partly drawn) [Compound A012, N-(3-chloro-4,5-dihydroisoxazol-5-yl)-4-[(5S)-5-[3-chloro-5-(trifluoromethyl)phenyl]-5-(trifluoromethyl)-4H-isoxazol-3-yl]-N-formyl-2-methyl-benzamide]
≥ 80%: percent control (mortality, anti-feedant effect or growth inhibition) at 200 ppm (Spodoptera littoralis) | percent effect (mortality or growth inhibition) at 200 ppm (Plutella xylostella) | percent effect (mortality or growth inhibition) at 200 ppm (Diabrotica Balteata) | mortality at 200 ppm (Thrips tabaci) | mortality at 200 ppm (Tetranychus urticae) | mortality at 200 ppm (Myzus persicae)

Cc1cc(C2=NO[C@@](c3cc(Cl)c(Cl)c(Cl)c3)(C(F)(F)F)C2)ccc1C(=O)NC1CC(Cl)=NO1 (stereo partly drawn) [Compound A013, N-(3-chloro-4,5-dihydroisoxazol-5-yl)-2-methyl-4-[(5S)-5-(3,4,5-trichlorophenyl)-5-(trifluoromethyl)-4H-isoxazol-3-yl]benzamide]
≥ 80%: percent control (mortality, anti-feedant effect or growth inhibition) at 200 ppm (Spodoptera littoralis) | percent effect (mortality or growth inhibition) at 200 ppm (Plutella xylostella) | percent effect (mortality or growth inhibition) at 200 ppm (Diabrotica Balteata) | mortality at 200 ppm (Thrips tabaci) | mortality at 200 ppm (Tetranychus urticae) | mortality at 200 ppm (Myzus persicae)

CC(=O)C1=NOC(N(C=O)C(=O)c2ccc(C3=NO[C@@](c4cc(Cl)c(F)c(Cl)c4)(C(F)(F)F)C3)cc2C)C1 (stereo partly drawn) [Compound A014, N-(3-acetyl-4,5-dihydroisoxazol-5-yl)-4-[(5S)-5-(3,5-dichloro-4-fluoro-phenyl)-5-(trifluoromethyl)-4H-isoxazol-3-yl]-N-formyl-2-methyl-benzamide]
≥ 80%: percent control (mortality, anti-feedant effect or growth inhibition) at 200 ppm (Spodoptera littoralis) | percent effect (mortality or growth inhibition) at 200 ppm (Plutella xylostella) | percent effect (mortality or growth inhibition) at 200 ppm (Diabrotica Balteata) | mortality at 200 ppm (Thrips tabaci) | mortality at 200 ppm (Tetranychus urticae) | mortality at 200 ppm (Myzus persicae)

CC(=O)C1=NOC(NC(=O)c2ccc(C3=NO[C@@](c4cc(Cl)c(F)c(Cl)c4)(C(F)(F)F)C3)cc2C)C1 (stereo partly drawn) [Compound A015, N-(3-acetyl-4,5-dihydroisoxazol-5-yl)-4-[(5S)-5-(3,5-dichloro-4-fluoro-phenyl)-5-(trifluoromethyl)-4H-isoxazol-3-yl]-2-methyl-benzamide]
≥ 80%: percent control (mortality, anti-feedant effect or growth inhibition) at 200 ppm (Spodoptera littoralis) | percent effect (mortality or growth inhibition) at 200 ppm (Plutella xylostella) | percent effect (mortality or growth inhibition) at 200 ppm (Diabrotica Balteata) | mortality at 200 ppm (Thrips tabaci) | mortality at 200 ppm (Tetranychus urticae) | mortality at 200 ppm (Myzus persicae)

Cc1cc(C2=NO[C@@](c3cc(Cl)cc(C(F)(F)F)c3)(C(F)(F)F)C2)ccc1C(=O)NC1CC(Cl)=NO1 (stereo partly drawn) [Compound A016, N-(3-chloro-4,5-dihydroisoxazol-5-yl)-4-[(5S)-5-[3-chloro-5-(trifluoromethyl)phenyl]-5-(trifluoromethyl)-4H-isoxazol-3-yl]-2-methyl-benzamide]
≥ 80%: percent control (mortality, anti-feedant effect or growth inhibition) at 200 ppm (Spodoptera littoralis) | percent effect (mortality or growth inhibition) at 200 ppm (Plutella xylostella) | percent effect (mortality or growth inhibition) at 200 ppm (Diabrotica Balteata) | mortality at 200 ppm (Thrips tabaci) | mortality at 200 ppm (Tetranychus urticae) | mortality at 200 ppm (Myzus persicae)

O=CN(C(=O)c1ccc(C2=NO[C@@](c3cc(Cl)c(Cl)c(Cl)c3)(C(F)(F)F)C2)cc1Cl)C1CC(Cl)=NO1 (stereo partly drawn) [Compound A017, 2-chloro-N-(3-chloro-4,5-dihydroisoxazol-5-yl)-N-formyl-4-[(5S)-5-(3,4,5-trichlorophenyl)-5-(trifluoromethyl)-4H-isoxazol-3-yl]benzamide]
≥ 80%: percent control (mortality, anti-feedant effect or growth inhibition) at 200 ppm (Spodoptera littoralis) | percent effect (mortality or growth inhibition) at 200 ppm (Plutella xylostella) | percent effect (mortality or growth inhibition) at 200 ppm (Diabrotica Balteata) | mortality at 200 ppm (Thrips tabaci) | mortality at 200 ppm (Tetranychus urticae) | mortality at 200 ppm (Myzus persicae)

O=C(NC1CC(Cl)=NO1)c1ccc(C2=NO[C@@](c3cc(Cl)c(Cl)c(Cl)c3)(C(F)(F)F)C2)cc1Cl (stereo partly drawn) [Compound A018, 2-chloro-N-(3-chloro-4,5-dihydroisoxazol-5-yl)-4-[(5S)-5-(3,4,5-trichlorophenyl)-5-(trifluoromethyl)-4H-isoxazol-3-yl]benzamide]
≥ 80%: percent control (mortality, anti-feedant effect or growth inhibition) at 200 ppm (Spodoptera littoralis) | percent effect (mortality or growth inhibition) at 200 ppm (Plutella xylostella) | percent effect (mortality or growth inhibition) at 200 ppm (Diabrotica Balteata) | mortality at 200 ppm (Thrips tabaci) | mortality at 200 ppm (Tetranychus urticae) | mortality at 200 ppm (Myzus persicae)

Cc1cc(C2=NO[C@@](c3cc(Br)cc(C(F)(F)F)c3)(C(F)(F)F)C2)ccc1C(=O)NC1CC(Cl)=NO1 (stereo partly drawn) [Compound A021, 4-[(5S)-5-[3-bromo-5-(trifluoromethyl)phenyl]-5-(trifluoromethyl)-4H-isoxazol-3-yl]-N-(3-chloro-4,5-dihydroisoxazol-5-yl)-2-methyl-benzamide]
≥ 80%: percent control (mortality, anti-feedant effect or growth inhibition) at 200 ppm (Spodoptera littoralis; application rate 200 ppm, cotton leaf discs, L1 larvae, 3 days after infestation) | percent effect (mortality or growth inhibition) at 200 ppm (Plutella xylostella; application rate 200 ppm, artificial diet, L2 larvae, 5 days after infestation) | percent effect (mortality or growth inhibition) at 200 ppm (Diabrotica Balteata; application rate 200 ppm, maize sprouts, L2 larvae, 4 days after infestation) | mortality at 200 ppm (Thrips tabaci; application rate 200 ppm, sunflower leaf discs, population of mixed ages, 6 days after infestation, read-out: mortality) | mortality at 200 ppm (Tetranychus urticae; application rate 200 ppm, bean leaf discs, mixed population (mobile stages), 8 days after infestation, read-out: mortality) | mortality at 200 ppm (Myzus persicae; application rate 200 ppm, sunflower leaf discs, population of mixed ages, 6 days after treatment, read-out: mortality)

CCC1=NOC(N(C=O)C(=O)c2ccc(C3=NO[C@@](c4cc(Cl)c(F)c(Cl)c4)(C(F)(F)F)C3)cc2C)C1 (stereo partly drawn) [Compound A022, 4-[(5S)-5-(3,5-dichloro-4-fluoro-phenyl)-5-(trifluoromethyl)-4H-isoxazol-3-yl]-N-(3-ethyl-4,5-dihydroisoxazol-5-yl)-N-formyl-2-methyl-benzamide]
≥ 80%: percent control (mortality, anti-feedant effect or growth inhibition) at 200 ppm (Spodoptera littoralis) | percent effect (mortality or growth inhibition) at 200 ppm (Plutella xylostella) | percent effect (mortality or growth inhibition) at 200 ppm (Diabrotica Balteata) | mortality at 200 ppm (Thrips tabaci) | mortality at 200 ppm (Tetranychus urticae) | mortality at 200 ppm (Myzus persicae)
